The values below come from US10125097B2, “1- [1-(benzoyl)-pyrrolidine-2-carbonyl]-pyrrolidine-2-carbonitrile derivatives” (UNIVERSITAT DE BARCELONA, priority 2012, dated 2018).

Where two headings read alike, the source gives them in different places.

In data set [1] the target is human prolyl oligopeptidase (Homo sapiens (Human), UniProt P48147). As to the kind of experiment: POP inhibition assay (Z-G-P-AMC substrate, fluorimetric). The class given is biochemical. As for the experimental part: Expression and Purification of Prolyl Oligopeptidase (POP)
POP was obtained by expression in E. coli and affinity purification using a His tail fusion according to a literature procedure (Tarragó T et al., ChemBioChem 2006; 7:827-33) summarized below:
hPOP expression: E. coli BL21 competent cells were transformed with pETM10 hPOP. To induce expression, a pre-culture of LB medium (50 mL) containing kanamycin (50 μg/mL) was inoculated with one colony and was grown overnight at 37° C. Next day, two cultures of LB medium (500 mL) were inoculated with the overnight culture (10 mL). The inoculated cultures were grown at 37° C. and 220 rpm until the OD595 was 1.2 (2.5-3 hours). IPTG was then added (final concentration of 1 mM) and induction was performed overnight at 25° C. Cells were harvested (3500 g, 15 min, 4° C.) and the pellet was suspended in suspension buffer (50 mL) [Tris-HCl pH 8 (50 mM), NaCl (300 mM), imidazole (1 mM)] and sonicated with use of four cycles (each consisting of 15 sec of sonication and 15 sec of rest) at an intensity of 50% and 0.5 pulses, the sample being kept on ice. After sonication, the sample was centrifuged (40 000 g, 30 min, 4° C.) and the supernatant was used immediately for POP purification. An ÁKTA explorer FPLC system was used for purification. The supernatant was applied at a flow of 1 mL/min to a HiTrapQuelating column (5 mL) previously equilibrated with 5 column volumes of suspension buffer. The column was washed with suspension buffer until the absorbance at 280 nm returned to basal level. The column was then rinsed with 5 volumes of washing buffer (50 mM Tris-HCl, pH 8, 300 mM NaCl, 30 mM imidazole). The elution was performed with 4 volumes of elution buffer (50 mM Tris-HCl, pH 8, 300 mM NaCl, 500 mM imidazole). Fractions (4 mL) were collected during the entire elution. POP activity was checked in all fractions and positive ones were analyzed by SDS-PAGE and stained with Biosafe Comassie Stain G-250. Positive fractions were collected and desalted by use of a HiPrep 26/10 Desalting column with Tris-HCl (50 mM, pH 8) as buffer. Recombinant hPOP was quantified with the Bio-Rad Protein Assay with BSA as standard. Aliquots of the recombinant enzyme were prepared and immediately frozen with liquid nitrogen and stored at −80° C.
POP activity was determined following the method described by Toide et al (Toide K et al., J. Pharmacol. Exp. Ther. 1995; 274:1370-8), using Z-G-P-AMC (N-benzyloxycarbonyl-Gly-Pro-methylcoumarinyl-7-amide) as POP substrate. The reactions were performed in 96-well microtiter plates, which allowed simultaneous monitoring of multiple reactions. For each reaction, activity buffer (134 μl, 100 mM Na/K phosphate buffer, pH 8.0) was pre-incubated for 15 min at 37° C. with hPOP (ranging from 20 to 60 nM, depending on the activity of the hPOP batch) and the corresponding new compound solution (3 μl). A stock solution of new compound was prepared in DMSO (100 mM), and dilutions were prepared from this stock solution with DMSO. Alternatively, the reactions were performed using another activity buffer (141 μL, 100 mM Tris-acetate, […], 1 mM DTT, pH 7.3), pre-incubating with hPOP (10 nM) and the corresponding new compound solution (3 μl) (Conditions B).
After preincubation, Z-G-P-AMC (10 μl, 3 mM in 40% 1,4-dioxane) was added (3 μl, 1.5 mM in 40% of 1,4-dioxane, in Conditions B), and the reaction was incubated for 1 hour at 37° C. The reaction was stopped by adding sodium acetate (150 μl, 1 M, pH 4) and the formation of AMC was measured fluorimetrically. The excitation and emission wavelengths were 360/40 and 485/20 nm, respectively.
Several concentration points (ranging from 25 μM to 400 μM) were measured for each compound. The inhibitory activity on prolyl oligopeptidase was calculated according to eq 1. For each new compound, the fluorescence in the presence (a) and in the absence of hPOP (b) was measured. […]

Data set [2] in a line: Parallel artificial membrane permeability assay (PAMPA). The class given is in vitro ADME. The settings on record: 200 μM initial concentration, pH 7.4, 4 hours, room temperature; for Papp at 4 h, 200 μM: PAMPA, read-out: Effective permeability Pe. As for the experimental part: Parallel artificial membrane permeability assay (PAMPA) described in Kansy M et al., J. Med. Chem. 1998; 41(7):1007-10 was used to determine the capacity of compounds to cross the Blood-Brain Barrier (BBB) by passive diffusion (Di L et al., Eur. J. Med. Chem. 2003; 38(3):223-32). The effective permeability (Pe) of the compounds was measured at an initial concentration of 200 μM. The buffer solution was prepared from a commercial concentrated one following the manufacturer's instructions. pH was adjusted to 7.4 using a 0.5 M NaOH solution. A stock solution of new compound was prepared in DMSO and diluted with buffer solution to a final 200 μM concentration (0.5% DMSO content). The PAMPA sandwich was separated and each donor well was filled with 200 μL of the compound solution. The acceptor plate was placed into the donor plate, ensuring that the underside of the membrane was in contact with buffer. 4 μL of the mixture of phospholipids (20 mg/mL) in dodecane was added to the filter of each well, and 200 μL of buffer solution was added to the each acceptor well. The plate was covered and incubated at room temperature in a saturated humidity atmosphere for 4 hours under orbital agitation at 100 rpm. After 4 hours, the contents of the acceptor and donor compartments were analyzed by HPLC: 150 μL of each well from the donor plate and 150 μL of each well from the acceptor plate were transferred to HPLC vials, injecting each sample into a reverse-phase C18 column (150 mm×4.6 mm×5 μm, 100 Å) (100 μL/injection from the acceptor wells, 10 μL/injection from the donor wells and for t0 references). Transport was also confirmed by MALDI-TOF spectrometry.
The phospholipid mixture used was a porcine polar brain lipid extract, provided by Avanti polar lipids, with the following composition: 12.6% phosphatidylcholine (PC), 33.1% phosphatidylethanolamine (PE), 18.5% phosphatidylserine (PS), 4.1% phosphatidylinositol (PI), 0.8% phosphatidic acid and 30.9% of other compounds.
The effective permeability (Pe) after 4 hours was calculated using equation 2 and the percentage of transport was calculated using equation 3:
[formula] wherein: t is time (h) CA(t) is the compound concentration in the acceptor well at time t and CD(to) is the compound concentration in the donor well at to.
A general note: The PAMPA barrier holds no transporters, so it reflects passive diffusion.

The mark [3] stands for this setting: 100 mM Na/K phosphate buffer, pH 8.0, hPOP 20 to 60 nM, Z-G-P-AMC, 1 hour at 37° C., read-out: IC50, inhibition of human prolyl oligopeptidase.
Setting [4] is: Conditions B: 100 mM Tris-acetate, 10 mM BSA, 1 mM DTT, pH 7.3, hPOP 10 nM, read-out: IC50, inhibition of human prolyl oligopeptidase, measured in conditions B.

human prolyl oligopeptidase, sequence (P48147 whole entry, the tested form may be a part): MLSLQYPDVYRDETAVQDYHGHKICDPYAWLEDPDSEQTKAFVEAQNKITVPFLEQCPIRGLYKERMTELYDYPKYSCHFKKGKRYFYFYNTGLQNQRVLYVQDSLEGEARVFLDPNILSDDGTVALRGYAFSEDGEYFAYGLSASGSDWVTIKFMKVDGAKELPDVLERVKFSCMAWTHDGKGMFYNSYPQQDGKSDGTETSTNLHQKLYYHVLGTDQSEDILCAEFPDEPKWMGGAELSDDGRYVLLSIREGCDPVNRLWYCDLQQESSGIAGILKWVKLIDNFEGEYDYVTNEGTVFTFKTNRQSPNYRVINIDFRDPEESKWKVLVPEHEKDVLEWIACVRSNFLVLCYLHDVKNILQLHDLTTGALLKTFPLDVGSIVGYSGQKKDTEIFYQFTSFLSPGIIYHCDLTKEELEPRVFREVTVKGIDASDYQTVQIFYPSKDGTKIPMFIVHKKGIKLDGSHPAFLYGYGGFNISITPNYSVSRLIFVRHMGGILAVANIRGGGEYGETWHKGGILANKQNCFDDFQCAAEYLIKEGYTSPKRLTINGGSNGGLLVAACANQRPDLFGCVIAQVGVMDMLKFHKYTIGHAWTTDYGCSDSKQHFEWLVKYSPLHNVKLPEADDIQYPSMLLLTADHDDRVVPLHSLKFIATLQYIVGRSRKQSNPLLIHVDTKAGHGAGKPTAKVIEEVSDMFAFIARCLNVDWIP

By IC50 is commonly meant the concentration at which inhibition is half-maximal. As for `COc1cc(C(=O)N2C[C@H](OC)C[C@H]2C(=O)N2CCC[C@H]2C#N)cc(OC)c1OCc1ccccc1` [Example 1, (S)-1-((2S,4R)-1-(4-(benzyloxy)-3,5-dimethoxybenzoyl)-4-methoxypyrrolidine-2-carbonyl)pyrrolidine-2-carbonitrile], the IC50 in data set [1] (setting [3]) was 63.8 nM. Also, in data set [2], the “% T (percentage of transport)” value was 4.3% and the Papp at 4 h, 200 μM was 1 ×10⁻⁶ cm/s.

As for `COc1cc(C(=O)N2C[C@H](F)C[C@H]2C(=O)N2CCC[C@H]2C#N)cc(OC)c1OCc1ccccc1` [Example 2, (S)-1-((2S,4R)-1-(4-(benzyloxy)-3,5-dimethoxybenzoyl)-4-fluoropyrrolidine-2-carbonyl)pyrrolidine-2-carbonitrile], in data set [1] (setting [3]), the IC50 amounted to 60.4 nM. In data set [2], the “% T (percentage of transport)” value worked out at 13.03% and the Papp at 4 h, 200 μM amounted to 7.28 ×10⁻⁶ cm/s.

With `COc1cc(C(=O)N2C[C@H](c3ccccc3)C[C@H]2C(=O)N2CCC[C@H]2C#N)cc(OC)c1OCc1ccccc1` [Example 3, (S)-1-((2S,4S)-1-(4-(benzyloxy)-3,5-dimethoxybenzoyl)-4-phenylpyrrolidine-2-carbonyl)pyrrolidine-2-carbonitrile], the IC50 in data set [1] (setting [3]) worked out at 339 nM. For the same molecule, in data set [2], the “% T (percentage of transport)” value worked out at 5.72% and the Papp at 4 h, 200 μM amounted to 2.89 ×10⁻⁶ cm/s.

`COc1cc(C(=O)N2C[C@@H](SC)C[C@H]2C(=O)N2CCC[C@H]2C#N)cc(OC)c1OCc1ccccc1` [Example 5, (S)-1-((2S,4S)-1-(4-(benzyloxy)-3,5-dimethoxybenzoyl)-4-(methythio)pyrrolidine-2-carbonyl)pyrrolidine-2-carbonitrile]: in data set [1] (setting [3]), the IC50 is 176 nM. Moreover, in data set [2], the “% T (percentage of transport)” value came to 17.03% and the Papp at 4 h, 200 μM amounted to 9.98 ×10⁻⁶ cm/s.

As for `COc1cc(C(=O)N2C[C@@H](C)C[C@H]2C(=O)N2CCC[C@H]2C#N)cc(OC)c1OCc1ccccc1` [Example 6, (S)-1-((2S,4S)-1-(4-(benzyloxy)-3,5-dimethoxybenzoyl)-4-methylpyrrolidine-2-carbonyl)pyrrolidine-2-carbonitrile], in data set [1] (setting [4]), the IC50 is 13.1 nM. For the same molecule, in data set [2], the “% T (percentage of transport)” value turned out to be 14.76% and the Papp at 4 h, 200 μM amounted to 3.79 ×10⁻⁶ cm/s.

In the case of `COc1cc(C(=O)N2C[C@@H](C(F)(F)F)C[C@H]2C(=O)N2CCC[C@H]2C#N)cc(OC)c1OCc1ccccc1` [Example 8, (S)-1-((2S,4S)-1-(4-(benzyloxy)-3,5-dimethoxybenzoyl)-4-(trifluoromethyl)-pyrrolidine-2-carbonyl)pyrrolidine-2-carbonitrile], in data set [1] (setting [3]), the IC50 is 176 nM. Also, in data set [2], the “% T (percentage of transport)” value is on record as 19.27% and the Papp at 4 h, 200 μM came to 5.07 ×10⁻⁶ cm/s.

With `COc1cc(C(=O)N2C[C@H](OC(C)(C)C)C[C@H]2C(=O)N2CCC[C@H]2C#N)cc(OC)c1OCc1ccccc1` [Example 9, (S)-1-((2S,4R)-1-(4-(benzyloxy)-3,5-dimethoxybenzoyl)-4-(tert-butoxy)pyrrolidine-2-carbonyl)pyrrolidine-2-carbonitrile], the IC50 in data set [1] (setting [3]) was 668 nM.

For the molecule `COc1cc(C(=O)N2CC(F)(F)C[C@H]2C(=O)N2CCC[C@H]2C#N)cc(OC)c1OC(C)=O` [Example 11, (S)-1-((2S)-1-(4-acetoxy-3,5-dimethoxybenzoyl)-4,4-difluoropyrrolidine-2-carbonyl)pyrrolidine-2-carbonitrile], in data set [1] (setting [3]), the IC50 came to 352 nM.

For the molecule `COc1cc(C(=O)N2CC(F)(F)C[C@H]2C(=O)N2CCC[C@H]2C#N)cc(OC)c1OC(=O)c1ccccc1` [Example 12, (S)-1-((2S)-1-(4-benzoyloxy-3,5-dimethoxybenzoyl)-4,4-difluoropyrrolidine-2-carbonyl)pyrrolidine-2-carbonitrile], the IC50 in data set [1] (setting [3]) was found to be 111 nM. Besides, in data set [2], the “% T (percentage of transport)” value is 8.47% and the Papp at 4 h, 200 μM was determined as 2.1 ×10⁻⁶ cm/s.

For the molecule `COc1cc(C(=O)N2CC(F)(F)C[C@H]2C(=O)N2CCC[C@H]2C#N)cc(OCc2ccccc2)c1OCc1ccccc1` [Example 13, (S)-1-((2S)-1-(3,4-dibenzyloxy-5-methoxybenzoyl)-4,4-difluoropyrrolidine-2-carbonyl)pyrrolidine-2-carbonitrile], the IC50 in data set [1] (setting [3]) came to 336 nM.

For the molecule `COc1cc(C(=O)N2CC(F)(F)C[C@H]2C(=O)N2CCC[C@H]2C#N)cc(OC(C)=O)c1OC` [Example 15, (S)-1-((2S)-1-(3-acetoxy-4,5-dimethoxybenzoyl)-4,4-difluoropyrrolidine-2-carbonyl)pyrrolidine-2-carbonitrile], the IC50 in data set [1] (setting [3]) amounted to 5600 nM.

Regarding `COc1cc(C(=O)N2CC(F)(F)C[C@H]2C(=O)N2CCC[C@H]2C#N)cc(OC(=O)C(C)(C)C)c1OC` [Example 16, (S)-1-((2S)-1-(3-pivaloyloxy-4,5-dimethoxybenzoyl)-4,4-difluoropyrrolidine-2-carbonyl)pyrrolidine-2-carbonitrile], the IC50 in data set [1] (setting [3]) is 2140 nM. Moreover, in data set [2], the “% T (percentage of transport)” value is 19.08% and the Papp at 4 h, 200 μM came to 5.02 ×10⁻⁶ cm/s.

Regarding `N#C[C@@H]1CCCN1C(=O)[C@@H]1CC(F)(F)CN1C(=O)c1ccc(OCc2ccccc2)cc1` [Example 17, (S)-1-((S)-1-(4-(benzyloxy)benzoyl)-4,4-difluoropyrrolidine-2-carbonyl)pyrrolidine-2-carbonitrile], the IC50 in data set [1] (setting [4]) was 287 nM. Besides, in data set [2], the “% T (percentage of transport)” value was 14.12% and the Papp at 4 h, 200 μM was 8.04 ×10⁻⁶ cm/s.
